How the values were obtained:
[1] = system: Articular chondrocytes; assay: Biochemical content of constructs digested with chondroitinase ABC, then cultured with CM or TMAO, Example 4; format: cell-based, bovine
Experimental: (§1) Articular chondrocytes were harvested from juvenile bovine wrist joints (2-4 weeks old), and digested for 8 hrs at 37° C. with Collagenase V (Sigma) to isolate chondrocytes. The cells were expanded for one passage in DMEM media containing 10% FBS, 1% PSAM, 5 ng/ml bFGF, 10 ng/ml PDGF, and 1 ng/ml of TGF-b1 (plating density=180 cells/cm^2) (see Ng et al. 2010 Tissue Eng Part A 16(3), 1041-1051). The passaged cells were seeded in 2% w/v agarose hydrogel scaffold (Type VII, Sigma Inc.) at a concentration of 30M cells/ml. Samples were cored (diameter=4 mm, thickness=2.34 mm) and cultured in chondrogenically-defined media (CM: DMEM with 0.1 uM dexamethasone, 40 mg/mL L-proline, 50 mg/mL ascorbate 2-phosphate, […] sodium pyruvate, 1×ITS+premix, 100 U/ml penicillin, and […] streptomycin and amphotericin B) supplemented with TGF-β3 for the first 14 days. Constructs grown without TMAO served as control.
(§2) The equilibrium Young's (Eγ) and dynamic modulus was determined under 10% unconfined compression. Biochemical analysis was performed to determine the GAG, hydroxyproline (OHP) and DNA content. GAG and OHP values were normalized to the DNA content and wet weight. Tested samples were fixed for histology and stained with Picosirius Red and Safranin-O to determine the distribution of collagen and GAG, respectively. […]

[2] = system: Articular chondrocytes; assay: GAG and OHP content after transient application of TMAO, Example 3; format: cell-based, bovine
Experimental: as §1
(§3) The equilibrium Young's (Eγ) and dynamic modulus was determined under 10% unconfined compression. Biochemical analysis was performed to determine the GAG, hydroxyproline (OHP) and DNA content. GAG and OHP values were normalized to the DNA content and wet weight. Tested samples were fixed for histology and stained with Picosirius Red and Safranin-O to determine the distribution of collagen and GAG, respectively. Mechanical, biochemical and histological analysis was performed every two weeks (n=4/5). A two-way ANOVA (factors: culture day and treatment) was performed to evaluate the treatment for mechanical and biochemical analysis with a Bonferroni post hoc analysis.
Culture media was supplemented with 0 mM, 5 mM, 50 mM, 100 mM or 200 mM of TMAO for the first 14 days of culture (transient application).
Methods are according to Example 2 unless otherwise indicated. Statistical analysis included a two-way ANOVA (factors: time & concentration) with a Bonferonni post-hoc test.

[3] = system: Articular chondrocytes; assay: Equilibrium modulus of constructs digested with chondroitinase ABC, then cultured with CM or TMAO, Example 4; format: cell-based, bovine
Experimental: as §1, §3
(§4) Methods are according to Example 2 unless otherwise indicated.
Mature constructs were enzymatically digested for 48 hours at day 14 with 0.15 U/mL of chondroitinase ABC (chABC), which degrades proteoglycans, then cultured with CM or CM supplemented with 5 mM of TMAO. […] Following the digestion, constructs were cultured in either CM or CM supplemented with 5 mM TMAO. A Student's t-test was performed to compare properties of the constructs cultured in CM or CM supplemented with TMAO. Significance was set at ? =0.05.

[4] = system: nucleus pulposus (spine tissue) cells; assay: GAG and OHP (collagen) content of nucleus pulposus micropellets, Example 5; format: cell-based
Experimental: as §3, §4
Micropellets (scaffold-free constructs comprised of aggregated cells only) consisting of nucleus pulposus (spine tissue) cells were cultured for […]. The media was supplement with either 5 mM or 50 mM TMAO. Micropellets cultured in CM were used as the control. Micropellets were cultured for 6 weeks and analyzed for biochemistry (i.e. GAG, DNA and OHP contents).

[5] = system: Articular chondrocytes; assay: Equilibrium Young's and dynamic modulus under 10% unconfined compression, Example 2; format: cell-based, bovine; details: for mechanical properties (Young's modulus) versus control group: day 28
Experimental: as §1
(§5) Six culture medias were evaluated, with serum free media containing ascorbic acid and 10 ng/ml of TGF-b3 for the first 14 days used as the control (see Lima et al. 2007 Osteoarthritis Cartilage 15(9), 1025-1033). TMAO was added to the media at concentrations of 55 mM and 180 mM, and urea was added to the media at concentrations of 90 mM and 360 mM. The final group included a combination (combo) of TMAO (180 mM) and urea (360 mM).
as §3

[6] = system: Articular chondrocytes; assay: Young's and dynamic modulus after transient application of TMAO, Example 3; format: cell-based, bovine; details: 50 mM TMAO for the first 14 days (transient); day 42
Experimental: as §1, §2

[7] = system: Articular chondrocytes; assay: Biochemical analysis (GAG, OHP) and histology of constructs, Example 2; format: cell-based, bovine
Experimental: as §1, §5, §3

[8] = system: Immature bovine chondrocytes; assay: Stiffness (Young's modulus) of engineered constructs cultured with supplemented media, Example 1; format: cell-based; details: TMAO 180 or 55 mM from day 0; day 28 of culture
Experimental: Immature bovine chondrocytes were enzymatically isolated and encapsulated in 2% w/v type VII agarose (Sigma). Engineered cylindrical constructs were cultured in serum-free chondrogenic media (ITS+, ascorbic acid, dexamethasone, pen/strep) and transforming growth factor beta-3 (TGFβ3) for the first 14 days.
The culture media of some constructs were supplemented from day 0 with TMAO (180 or 55 mM), urea (360 or 90 mM) or TMAO+urea (combo: 360 mM urea and 180 mM TMAO which is the physiological ratio found in shark tissue).

[9] = 5 mM TMAO after chABC digestion, by day 28, persisted to day 42
[10] = high concentration of urea (360 mM)
[11] = lower concentrations of urea (90 mM)

`C[N+](C)(C)[O-]` [TMAO, Trimethylamine N-oxide] was tested, and the “biochemical properties relative to CM alone” value [1, 9] was “significantly greater”, the “collagen content compared to the control” value ([1]; TMAO supplement following the chABC digestion) was “increases the collagen content” and the “OHP content greater than the control values” ([2]; 100 mM TMAO, day 28) was “approximately 50%”. The “GAG content (normalized to wet weight) greater than control values” ([2]; TMAO 5 mM, 50 mM and 100 mM, day 42) was “up to 17%”, the “OHP content (normalized to the wet weight) versus control” value ([2]; TMAO groups, day 28, reaching significance for 50 mM and 100 mM) was “greater than the control” and the “mechanical properties relative to CM alone” value [3, 9] was “significantly greater”. The “recovery of the mechanical properties” value ([3]; TMAO supplement following the chABC digestion, compared to the control) was “quicker recovery”, the “EY (equilibrium Young's modulus)” value ([3]; day 42, CM with 5 mM TMAO after chABC digestion, CM group 115.6±38.1 kPa) was 235.6±75.8 kPa and the “GAG production of the micropellets” value ([4]; 5 mM or 50 mM TMAO, normalized by DNA content at day 42 (FIG. 9A)) was “graded effect”. The “increase in collagen production” value ([4]; CM supplemented with TMAO (5 mM or 50 mM), normalized by DNA content at day 42 (FIG. 9B)) was 50%, the “mechanical properties (Young's modulus) versus control group” value ([5]; 55 mM TMAO) was 2 × and the “mechanical properties (Young's modulus) versus control group” value ([5]; 180 mM TMAO) was 2 ×. The “Young's modulus versus control group” value [6] was “significantly greater than the control group”, the “dynamic modulus versus control group” value [6] was “significantly greater than the control group” and the “normalized GAG content versus control” value ([7]; 55 mM TMAO, day 28) was “significantly greater than control”. The “normalized collagen content versus control” value ([7]; 55 mM TMAO, day 28) was “significantly greater than control”, the “histology: distribution of GAG and collagen throughout the thickness of the construct” value ([7]; 55 mM TMAO, day 28, Picosirius Red and Safranin-O) was “even distribution” and the “Young's modulus (stiffness) versus control group” value [8] was “two-fold”.

In the case of `NC(N)=O` [urea, reference compound], the “mechanical properties versus day 0” value [5, 10] is reported as “did not increase from day 0”, the “effect on mechanical properties” value [5, 11] is reported as “did not have adverse effects” and the “biochemical properties versus day 0” value [7, 10] is reported as “did not increase from day 0”. The “effect on biochemical properties” value [7, 11] was “did not have adverse effects”.

— patent US9321993B2, “Tissue culture method for producing cartilage using trimethylamine N-oxide and chondroitinase” (The Trustees of Columbia University in the City of New York, priority 2010, dated 2016)
